The text below walks through data of patent US11453703B2, “Heterotandem bicyclic peptide complexes” (BicycleTX Limited, priority 2018, dated 2022).

The term EC50 denotes the concentration giving half of the maximal effect.

Data set [1] relates to human PBMC co-cultured with 4T1-D02 (Nectin4+). Put plainly: Human PBMC-4T1 co-culture (cytokine release) assay. Particulars: anti-CD3 stimulated PBMC, 48 hours. The class given is cell-based. Put shortly: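 Healthy-donor human PBMCs co-cultured 5:1 with murine Nectin-4-overexpressing 4T1-D02 cells, stimulated with 125 ng/ml soluble anti-CD3 (OKT3) plus test compounds. IL-2 and IFNγ in 48 h supernatants measured by HTRF and interpolated from standard curves; three donors, each in duplicate.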

Data set [2] in a line: Pharmacokinetics of CD137 bispecifics in SD rats. The class given is in vivo. Particulars: SD Rat, 2 mg/kg IV, plasma. On the procedure:
Male SD Rats were dosed with 2 mg/kg of each Bicycle multimer formulated in 25 mM Histidine HCl, 10% sucrose pH 7. Serial bleeding (about 80 μL blood/time point) was performed via submadibular or saphenous vein at each time point. All blood samples were immediately transferred into prechilled microcentrifuge tubes containing 2 μL K2-EDTA (0.5M) as anti-coagulant and placed on wet ice. Blood samples were immediately processed for plasma by centrifugation at approximately 4° C., 3000 g. The precipitant including internal standard was immediately added into the plasma, mixed well and centrifuged at 12,000 rpm, 4° C. for 10 minutes. The supernatant was transferred into pre-labeled polypropylene microcentrifuge tubes, and then quick-frozen over dry ice. The samples were stored at […] or below as needed until analysis. 7.5 μL of the supernatant samples were directly injected for LC-MS/MS analysis using an Orbitrap Q Exactive in positive ion mode to determine the concentrations of Bicycle multimer. Plasma concentration versus time data were analyzed by non-compartmental approaches using the Phoenix WinNonlin 6.3 software program. C0, CI, Vdss, T½, AUC(0-last), AUC(0-inf), MRT(0-last), MRT(0-inf) and graphs of plasma concentration versus time profile were reported.

Data set [3] concerns primary patient derived tumour cells. Put plainly: Ex vivo culture of primary patient-derived lung tumours. It counts as cell-based, human. Particulars: patient-derived lung tumour samples. On the procedure:
Primary patient derived tumour cells from Discovery Life Sciences (DLS) are thawed gently in 10 mL pre-warmed wash medium spiked fresh with Benzonase. The 3D spheroid kit from Greiner (cat #655840) is used to maintain cells in culture for 2 days. Briefly, tumour cells are counted with trypan blue using a haemocytometer. The cells are centrifuged at 1500 rpm for 5 min to wash, and the pellet is resuspended in 100 μL per 1×10^6 cells N3D nanoshuttle. To make them magnetic, cells are spun down at 1500 rpm for 5 min and resuspended; this process is repeated for a total of 4 times. After the final spin, cells are resuspended in the appropriate amount of fresh Lung DTC medium (DLS) to give 50,000-100,000 cells per well in 100 μL/well. Greiner cell-repellent, 96-well plates (cat #655976) are used for this experiment.
If there are cell clumps or debris visible, sample is applied to a 70-100 μm filter before plating. At least 50,000 cells per sample are reserved for a Day 0 flow cytometry panel, these cells are stained, fixed, and stored at 4° C. for later flow analysis. […] Cytokines are quantified using a custom-built cytokine/chemokine panel (IP-10, Granzyme B, IFNγ, IL-2, IL-6, TNFα, IL-8, MIP-1a, MIP-1b, MCP-1, IL-10, MIG) from R&D systems on a Luminex reader. […] Flow data is analysed with Flowjo software.

Another data set addresses CD137 (Homo sapiens, UniProt Q07011). As to the kind of experiment: CD137 reporter assay, co-culture with Nectin-4 tumour cells.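 Also: jurkat reporter cells co-cultured with tumour cells and test article for 6 h, luminescence signal relative to Jurkat plus tumour cells lacking test article.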 It counts as cell-based. The arrangement: host or cells: Jurkat reporter cells. A general note: Reporter assays use an easily measured gene product as a stand-in for the process of interest.

CD137, sequence (Q07011 24-255): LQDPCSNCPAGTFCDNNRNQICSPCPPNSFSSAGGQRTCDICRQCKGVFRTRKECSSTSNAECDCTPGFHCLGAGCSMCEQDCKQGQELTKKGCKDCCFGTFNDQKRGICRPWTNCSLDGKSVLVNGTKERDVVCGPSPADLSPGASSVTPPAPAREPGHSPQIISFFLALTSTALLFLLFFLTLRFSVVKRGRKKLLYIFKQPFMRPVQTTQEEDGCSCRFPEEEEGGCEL

`CCCC[C@@H]1NC(=O)[C@H](Cc2ccc(O)cc2)NC(=O)[C@@H]2CCCN2C(=O)[C@H](CC(=O)O)NC(=O)[C@H](C)NC(=O)[C@H](Cc2ccccc2)NC(=O)[C@@H]2CSCCC(=O)N3CN(CN(C3)C(=O)CCSC[C@@H](C(=O)N[C@@H](C)C(N)=O)NC1=O)C(=O)CCSC[C@H](NC(C)=O)C(=O)N[C@@H](CC(C)(C)C)C(=O)N1CCC[C@H]1C(=O)N[C@@H](CCC(=O)O)C(=O)N[C@H](CCCCNC(=O)CCc1cn(CCOCCOCCOCCOCCOCCC(=O)N[C@H]3CSCCC(=O)N4CN5CN(C4)C(=O)CCSC[C@H](NC(=O)[C@@H](CC(=O)O)NC(=O)[C@H](Cc4cccc6ccccc46)NC(=O)[C@@H]4CCCN4C3=O)C(=O)N[C@@H](CCSC)C(=O)N[C@@H](CCCCNC(=N)N)C(=O)N[C@@H](CC(=O)O)C(=O)N[C@@H](Cc3c[nH]c4ccccc34)C(=O)N[C@@H](CO)C(=O)N[C@@H]([C@@H](C)O)C(=O)N3CCC[C@H]3C(=O)N3C[C@H](O)C[C@H]3C(=O)N[C@@H](Cc3c[nH]c4ccccc34)C(=O)N[C@H](C(N)=O)CSCCC5=O)nn1)C(=O)N1CCC[C@H]1C(=O)N[C@@H](Cc1ccc(O)cc1)C(=O)N2` [BCY10572]: the concentration giving a half-maximal response (EC50) in data set [1] (IFN-γ secretion) is 0.25 nM; on CD137 it was 0.44 nM. Also, the “max IFN-y” value in data set [1] came out at 17915 pg/mL. Also, the T½ in data set [2] was 55.6 min. In data set [2] (male, Sprague-Dawley (SD), read-out: Clp), the clearance amounted to 0.936 L/h/kg. Further, the Vd in data set [2] (male, Sprague-Dawley (SD), read-out: Vdss) is 0.882 L/kg. Also, the “change in immune markers (normalized to vehicle)” value in data set [3] (48 h (FIG. 8)) is on record as “induced Nectin-4 dependent change in several immune markers”. Besides, in data set [3] (Day 2 flow (FIG. 8)), the “change in % CD8+ki67+ T cells” value is listed as “induced Nectin-4 dependent change”. Further, the “Fold Induction over Background” value on CD137 (tumour target Nectin4, co-culture with H1376, 6 h) is 55 fold.
